Measured values: patent US20260053812A1, “METHODS OF TREATING HYPERTENSION WITH A COMBINATION OF AN ALDOSTERONE SYNTHASE INHIBITOR AND A DIURETIC” (Mineralys Therapeutics, Inc., priority 2022, published 2026)

Experiment: Adverse events (TEAEs, SAEs, AESI; Safety Analysis Set)
Description: In analyses performed on the Safety Analysis Set, subjects will be analyzed according to their actual treatment received.

## CC(=O)N[C@H]1CC[C@H](NC(=O)CN2CCN(c3nncc(-c4ccc(C)cc4)n3)CC2)CC1 [Compound A HBr]
100 mg QD Pooled, N 60
  AE requiring dose titration: Hyperkalemia: 2 (3.3%)
  AE requiring dose titration: Hyponatremia: 1 (1.7%)
  AE requiring dose titration: Other possibly related: 0
  AE requiring dose titration: Other unrelated: 0
  AE requiring study drug discontinuation: Hyperkalemia: 2 (3.3%)
  AE requiring study drug discontinuation: Hyponatremia: 1 (1.7%)
  AE requiring study drug discontinuation: Hypotension: 2 (3.3%)
  AE requiring study drug discontinuation: Other possibly related: 1 (1.7%)
  AE requiring study drug discontinuation: Other unrelated: 4 (6.7%)
Example 1 analysis, whole trial
  Serious adverse events (SAEs) related to the study medication: No serious adverse events
Part 1
  Subjects with TEAE resulting in dose modification: 24 subjects
Part 1 100 mg QD, N 29
  AE requiring dose titration: Hyperkalemia: 1 (3.4%)
  AE requiring dose titration: Hyponatremia: 0
  AE requiring dose titration: Other possibly related: 0
  AE requiring dose titration: Other unrelated: 0
  AE requiring study drug discontinuation: Hyperkalemia: 2 (6.9%)
  AE requiring study drug discontinuation: Hyponatremia: 0
  AE requiring study drug discontinuation: Hypotension: 1 (3.4%)
  AE requiring study drug discontinuation: Other possibly related: 1 (3.4%)
  AE requiring study drug discontinuation: Other unrelated: 3 (6.0%)
Part 1, 12.5 mg BID (N = 22)
  On-treatment TEAE, Cardiac disorders, %: (4.5) %
  On-treatment TEAE, Cortisol decreased, %: (9.1) %
  On-treatment TEAE, Cortisol decreased, Mild, %: (9.1) %
  On-treatment TEAE, General disorders and administration site conditions, %: (9.1) %
  On-treatment TEAE, General disorders and administration site conditions, Mild, %: (4.5) %
  On-treatment TEAE, Glomerular filtration rate decreased, %: (13.6) %
  On-treatment TEAE, Glomerular filtration rate decreased, Mild, %: (13.6) %
  On-treatment TEAE, Hyperkalaemia, %: (22.7) %
  On-treatment TEAE, Hyperkalaemia, Mild, %: (18.2) %
  On-treatment TEAE, Hyperkalaemia, Moderate, %: (4.5) %
  On-treatment TEAE, Infections and infestations, %: (4.5) %
  On-treatment TEAE, Infections and infestations, Moderate, %: (4.5) %
  On-treatment TEAE, Investigations, %: (27.3) %
  On-treatment TEAE, Investigations, Mild, %: (22.7) %
  On-treatment TEAE, Investigations, Moderate, %: (4.5) %
  On-treatment TEAE, Metabolism and nutrition disorders, %: (22.7) %
  On-treatment TEAE, Metabolism and nutrition disorders, Mild, %: (18.2) %
  On-treatment TEAE, Metabolism and nutrition disorders, Moderate, %: (4.5) %
  On-treatment TEAE, Nervous system disorders, %: (4.5) %
  On-treatment TEAE, Nervous system disorders, Mild, %: (4.5) %
  On-treatment TEAE, Orthostatic hypotension, %: (4.5) %
  On-treatment TEAE, Orthostatic hypotension, Mild, %: (4.5) %
  On-treatment TEAE, Psychiatric disorders, %: (4.5) %
  On-treatment TEAE, Psychiatric disorders, Moderate, %: (4.5) %
  On-treatment TEAE, Vascular disorders, %: (9.1) %
  On-treatment TEAE, Vascular disorders, Mild, %: (9.1) %
  Subjects with any On-treatment TEAEs leading to withdrawal from study drug, %: 4.5%
  Subjects with any On-treatment TEAEs, Mild, %: (36.4) %
  Subjects with any On-treatment TEAEs, Moderate, %: (22.7) %
  TEAE leading to permanent discontinuation from study drug, Orthostatic hypotension, %: 4.5%
  TEAE leading to permanent discontinuation from study drug, Vascular disorders, %: 4.5%
Part 1, 12.5 mg QD (N = 23)
  On-treatment TEAE, Cardiac disorders, %: (8.7) %
  On-treatment TEAE, Dizziness, %: (4.3) %
  On-treatment TEAE, Gastrointestinal disorders, %: (8.7) %
  On-treatment TEAE, Gastrointestinal disorders, Mild, %: (4.3) %
  On-treatment TEAE, General disorders and administration site conditions, %: (4.3) %
  On-treatment TEAE, Glomerular filtration rate decreased, %: (4.3) %
  On-treatment TEAE, Glomerular filtration rate decreased, Mild, %: (4.3) %
  On-treatment TEAE, Hyperkalaemia, %: (26.1) %
  On-treatment TEAE, Hyperkalaemia, Mild, %: (17.4) %
  On-treatment TEAE, Hyperkalaemia, Moderate, %: (4.3) %
  On-treatment TEAE, Hyperkalaemia, Severe, %: (4.3) %
  On-treatment TEAE, Hypertension, %: (8.7) %
  On-treatment TEAE, Hypertension, Moderate, %: (4.3) %
  On-treatment TEAE, Infections and infestations, %: (13.0) %
  On-treatment TEAE, Infections and infestations, Mild, %: (13.0) %
  On-treatment TEAE, Investigations, %: (13.0) %
  On-treatment TEAE, Investigations, Mild, %: (13.0) %
  On-treatment TEAE, Metabolism and nutrition disorders, %: (26.1) %
  On-treatment TEAE, Metabolism and nutrition disorders, Mild, %: (17.4) %
  On-treatment TEAE, Metabolism and nutrition disorders, Moderate, %: (4.3) %
  On-treatment TEAE, Nervous system disorders, %: (8.7) %
  On-treatment TEAE, Nervous system disorders, Mild, %: (8.7) %
  On-treatment TEAE, Orthostatic hypotension, %: (8.7) %
  On-treatment TEAE, Orthostatic hypotension, Mild, %: (8.7) %
  On-treatment TEAE, Urinary tract infection, %: (4.3) %
  On-treatment TEAE, Urinary tract infection, Mild, %: (4.3) %
  On-treatment TEAE, Vascular disorders, %: (13.0) %
  On-treatment TEAE, Vascular disorders, Mild, %: (8.7) %
  On-treatment TEAE, Vascular disorders, Moderate, %: (4.3) %
  Subjects with any On-treatment TEAEs leading to withdrawal from study drug, %: (17.4) %
  Subjects with any On-treatment TEAEs, Mild, %: (52.2) %
  Subjects with any On-treatment TEAEs, Moderate, %: (13.0) %
  Subjects with any On-treatment TEAEs, Severe, %: (4.3) %
  TEAE leading to permanent discontinuation from study drug, Cardiac disorders, %: (4.3) %
  TEAE leading to permanent discontinuation from study drug, Coronary artery disease, %: (4.3) %
  TEAE leading to permanent discontinuation from study drug, Dizziness, %: (4.3) %
  TEAE leading to permanent discontinuation from study drug, Hyperkalaemia, %: (8.7) %
  TEAE leading to permanent discontinuation from study drug, Metabolism and nutrition disorders, %: (8.7) %
  TEAE leading to permanent discontinuation from study drug, Nervous system disorders, %: (4.3) %
Part 1, 25 mg BID (N = 30)
  On-treatment TEAE, Blood and lymphatic system disorders, %: (6.7) %
  On-treatment TEAE, Blood and lymphatic system disorders, Mild, %: (6.7) %
  On-treatment TEAE, Cortisol decreased, %: (3.3) %
  On-treatment TEAE, Cortisol decreased, Mild, %: (3.3) %
  On-treatment TEAE, Gastrointestinal disorders, %: (3.3) %
  On-treatment TEAE, Gastrointestinal disorders, Mild, %: (3.3) %
  On-treatment TEAE, Headache, %: (6.7) %
  On-treatment TEAE, Headache, Mild, %: (6.7) %
  On-treatment TEAE, Hyperkalaemia, %: (30.0) %
  On-treatment TEAE, Hyperkalaemia, Mild, %: (23.3) %
  On-treatment TEAE, Hyperkalaemia, Moderate, %: (6.7) %
  On-treatment TEAE, Hypertension, %: (3.3) %
  On-treatment TEAE, Infections and infestations, %: (10.0) %
  On-treatment TEAE, Infections and infestations, Mild, %: (6.7) %
  On-treatment TEAE, Infections and infestations, Moderate, %: (3.3) %
  On-treatment TEAE, Investigations, %: (10.0) %
  On-treatment TEAE, Investigations, Mild, %: (6.7) %
  On-treatment TEAE, Investigations, Moderate, %: (3.3) %
  On-treatment TEAE, Metabolism and nutrition disorders, %: (33.3) %
  On-treatment TEAE, Metabolism and nutrition disorders, Mild, %: (26.7) %
  On-treatment TEAE, Metabolism and nutrition disorders, Moderate, %: (6.7) %
  On-treatment TEAE, Nervous system disorders, %: (10.0) %
  On-treatment TEAE, Nervous system disorders, Mild, %: (6.7) %
  On-treatment TEAE, Urinary tract infection, %: (10.0) %
  On-treatment TEAE, Urinary tract infection, Mild, %: (6.7) %
  On-treatment TEAE, Vascular disorders, %: (3.3) %
  On-treatment TEAE, Vascular disorders, Mild, %: (3.3) %
  Subjects with any On-treatment TEAEs leading to withdrawal from study drug, %: 3.3%
  Subjects with any On-treatment TEAEs, Mild, %: (46.7) %
  Subjects with any On-treatment TEAEs, Moderate, %: (13.3) %
  TEAE leading to permanent discontinuation from study drug, Hyperkalaemia, %: 3.3%
  TEAE leading to permanent discontinuation from study drug, Hypertension, %: 3.3%
  TEAE leading to permanent discontinuation from study drug, Metabolism and nutrition disorders, %: 3.3%
  TEAE leading to permanent discontinuation from study drug, Vascular disorders, %: 3.3%
Part 1, 50 mg QD (N = 28)
  On-treatment TEAE, Cardiac disorders, %: (3.6) %
  On-treatment TEAE, Dizziness, %: (7.1) %
  On-treatment TEAE, Gastrointestinal disorders, %: (3.6) %
  On-treatment TEAE, Gastrointestinal disorders, Mild, %: (3.6) %
  On-treatment TEAE, General disorders and administration site conditions, %: (7.1) %
  On-treatment TEAE, General disorders and administration site conditions, Mild, %: (3.6) %
  On-treatment TEAE, Headache, %: (3.6) %
  On-treatment TEAE, Headache, Mild, %: (3.6) %
  On-treatment TEAE, Hyperkalaemia, %: (10.7) %
  On-treatment TEAE, Hyperkalaemia, Mild, %: (10.7) %
  On-treatment TEAE, Hypertension, %: (7.1) %
  On-treatment TEAE, Hypertension, Moderate, %: (7.1) %
  On-treatment TEAE, Infections and infestations, %: (7.1) %
  On-treatment TEAE, Infections and infestations, Moderate, %: (7.1) %
  On-treatment TEAE, Investigations, %: (3.6) %
  On-treatment TEAE, Investigations, Mild, %: (3.6) %
  On-treatment TEAE, Metabolism and nutrition disorders, %: (17.9) %
  On-treatment TEAE, Metabolism and nutrition disorders, Mild, %: (17.9) %
  On-treatment TEAE, Nervous system disorders, %: (7.1) %
  On-treatment TEAE, Nervous system disorders, Mild, %: (3.6) %
  On-treatment TEAE, Urinary tract infection, %: (7.1) %
  On-treatment TEAE, Urinary tract infection, Mild, %: (3.6) %
  On-treatment TEAE, Vascular disorders, %: (7.1) %
  On-treatment TEAE, Vascular disorders, Moderate, %: (7.1) %
  Subjects with any On-treatment TEAEs, Mild, %: (14.3) %
  Subjects with any On-treatment TEAEs, Moderate, %: (21.4) %
Part 1, 100 mg QD (N = 30)
  On-treatment TEAE, Blood creatinine increased, %: (10.0) %
  On-treatment TEAE, Blood creatinine increased, Mild, %: (10.0) %
  On-treatment TEAE, Gastrointestinal disorders, %: (6.7) %
  On-treatment TEAE, Gastrointestinal disorders, Mild, %: (6.7) %
  On-treatment TEAE, Glomerular filtration rate decreased, %: (16.7) %
  On-treatment TEAE, Glomerular filtration rate decreased, Mild, %: (13.3) %
  On-treatment TEAE, Hyperkalaemia, %: (26.7) %
